Drawing on patent publication US20210101899A1, “INHIBITORS OF MUTANT ISOCITRATE DEHYDROGENASES AND COMPOSITIONS AND METHODS THEREOF” (IsoCure Biosciences Inc., priority 2016, published 2021), this text covers IC50 for five molecules.

The term IC50 denotes the point on the concentration scale where inhibition reaches its midpoint.

Where only a bound is given, the exact number is not on record here.

Format in all cases: biochemical
In assay [1] the target is IDH1 (Homo sapiens, UniProt O75874). In words: IDH enzyme assay, NADPH production by diaphorase/resazurin coupled detection. Conditions: IDH1 WT; pre-incubated with enzyme for 1 h at room temperature; 65 μM Isocitrate+50 μM NADP; 10-dose, 3-fold dilution from 10 μM; read-out: Compound IC50 (nM) IDH1. As to the method: (§1) Compounds were tested against 3 enzymes, as provided below. Compounds were tested in 10-dose IC50 mode with 3-fold serial dilution at a starting concentration of 10 μM. Control Compounds were tested in 10-dose IC50 mode with 3-fold serial dilution starting at 1 mM or 10 mM. Assay Format: The production or depletion of NADPH by IDH enzymes was measured by diaphorase/resazurin coupled detection. Fluorescence measurement: Ex/Em=535/590 by EnVision. Compounds were pre-incubated with enzyme for 1 h at room temperature. Standard substrate: 1500 μM a-Ketoglutarate+15 μM NADPH for IDH1 (R132H). 500 μM a-Ketoglutarate+15 μM NADPH for IDH1 (R132C). 65 μM Isocitrate+50 μM NADP for IDH1.
Chain of IDH1 (O75874 whole entry): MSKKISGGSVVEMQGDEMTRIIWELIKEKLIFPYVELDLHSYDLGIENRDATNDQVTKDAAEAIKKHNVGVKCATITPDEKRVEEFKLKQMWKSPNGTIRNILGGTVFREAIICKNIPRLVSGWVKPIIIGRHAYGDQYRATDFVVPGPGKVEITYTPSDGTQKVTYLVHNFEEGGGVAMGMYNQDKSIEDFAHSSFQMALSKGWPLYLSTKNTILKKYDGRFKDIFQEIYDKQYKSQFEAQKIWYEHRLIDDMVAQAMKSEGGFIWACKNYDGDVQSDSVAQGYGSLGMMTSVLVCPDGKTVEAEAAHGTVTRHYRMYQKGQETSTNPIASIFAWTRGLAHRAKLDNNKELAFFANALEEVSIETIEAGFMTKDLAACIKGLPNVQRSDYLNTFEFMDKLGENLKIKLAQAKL
On the technique in general: The colour change of resazurin is a common sign of viable cells or microbes.

For assay [2], the target named is IDH1 (R132C) (Homo sapiens, UniProt O75874, R132C). Nature of the assay: IDH enzyme assay, NADPH depletion by diaphorase/resazurin coupled detection. Particulars: pre-incubated with enzyme for 1 h at room temperature; 500 μM a-Ketoglutarate+15 μM NADPH; 10-dose, 3-fold dilution from 10 μM; read-out: Compound IC50 (nM) IDH1 (R132C). The method, then: as §1
Chain of IDH1 (R132C) (O75874 whole entry R132C): as the sequence (O75874 whole entry) above, with R132C counted along it
Assay [3] addresses IDH1 (R132H) (Homo sapiens, UniProt O75874, R132H). Described as above. Particulars: pre-incubated with enzyme for 1 h at room temperature; 1500 μM a-Ketoglutarate+15 μM NADPH; 10-dose, 3-fold dilution from 10 μM; read-out: Compound IC50 (nM) IDH1 (R132H). The method, then: as §1

Chain of IDH1 (R132H) (O75874 whole entry R132H): as the sequence (O75874 whole entry) above, with R132H counted along it

Regarding `C=CC(=O)Nc1ccc(NC(=O)c2nn(Cc3ccc(F)cc3)c3c2CN(C(=O)c2ccc[nH]2)C[C@H]3C)cc1` [ISO-2-25-R], the results for the IC50 in assay [1], in assay [2] and in assay [3] were 2140 nM, 21 nM and 10 nM, respectively.
For `C=CC(=O)N1CCC(NC(=O)c2nn(Cc3ccc(F)cc3)c3c2CN(C(=O)c2ccc[nH]2)CC3C)CC1` (stereo not drawn) [ISO-2-26, N-(1-acryloylpiperidin-4-yl)-1-(4-fluorobenzyl)-7-methyl-5-(1H-pyrrole-2-carbonyl)-4,5,6,7-tetrahydro-1H-pyrazolo[4,3-c]pyridine-3-carboxamide] the same measures were over 10000 nM, over 10000 nM and over 10000 nM.
The like results for `C=CC(=O)Nc1cccc(Cn2nc(C(=O)Nc3cccc(C)c3)c3c2C(C)CN(C(=O)c2ccc[nH]2)C3)c1` (stereo not drawn) [ISO-2-27, 1-(3-acrylamidobenzyl)-7-methyl-5-(1H-pyrrole-2-carbonyl)-N-(m-tolyl)-4,5,6,7-tetrahydro-1H-pyrazolo[4,3-c]pyridine-3-carboxamide] were, in that order, over 10000 nM, 127 nM and 25 nM.
The like results for `C=CC(=O)Nc1ccc(Cn2nc(C(=O)Nc3cccc(C)c3)c3c2C(C)CN(C(=O)c2ccc[nH]2)C3)cc1C` (stereo not drawn) [ISO-2-28, 1-(4-acrylamido-3-methylbenzyl)-7-methyl-5-(1H-pyrrole-2-carbonyl)-N-(m-tolyl)-4,5,6,7-tetrahydro-1H-pyrazolo[4,3-c]pyridine-3-carboxamide] were, in that order, over 10000 nM, 5550 nM and 149 nM.
Turning to `C=CC(=O)Nc1cc(NC(=O)c2nn(Cc3ccc(F)cc3)c3c2CN(C(=O)c2ccc[nH]2)C[C@H]3C)ccc1OC` [ISO-2-30-R], the IC50 in assay [1] came to 2210 nM; in assay [2] it was 14 nM; in assay [3], 6 nM.
